Data on 1 molecule can be found in ChEMBL document CHEMBL5728835, “3-(5-amino-1-oxoisoindolin-2-yl)piperidine-2,6-dione derivatives and uses thereof” (2021).

The experiment has as its target Eukaryotic peptide chain release factor GTP-binding subunit ERF3A (Homo sapiens, UniProt P15170).

Sequence of Eukaryotic peptide chain release factor GTP-binding subunit ERF3A (P15170 whole entry): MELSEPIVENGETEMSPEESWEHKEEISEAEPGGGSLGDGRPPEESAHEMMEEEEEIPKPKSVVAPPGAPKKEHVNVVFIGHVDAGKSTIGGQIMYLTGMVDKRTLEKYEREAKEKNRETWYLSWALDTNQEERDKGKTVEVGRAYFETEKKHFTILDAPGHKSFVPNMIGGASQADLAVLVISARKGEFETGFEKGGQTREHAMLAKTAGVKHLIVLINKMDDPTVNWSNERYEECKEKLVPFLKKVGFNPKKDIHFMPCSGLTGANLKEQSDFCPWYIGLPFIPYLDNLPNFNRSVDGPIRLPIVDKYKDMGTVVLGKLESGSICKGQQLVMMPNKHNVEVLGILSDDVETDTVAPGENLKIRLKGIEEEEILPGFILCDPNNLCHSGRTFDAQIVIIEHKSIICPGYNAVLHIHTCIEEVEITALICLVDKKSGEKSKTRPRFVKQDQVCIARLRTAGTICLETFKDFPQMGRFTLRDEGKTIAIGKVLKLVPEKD

On to `CN[C@H]1CC=CC[C@@H]1N(C)c1ccc2c(c1)CN(C1CCC(=O)NC1=O)C2=O` (stereo partly specified), for which the EC50 (in general, the concentration needed to bring the measured effect to its halfway point) is over 50 µM.
